“Also recorded” adds a separate entry of the source. Read-outs that look alike come from different tables or passages of the source.
Legend:
[1] = tested on: murine macrophage-like J774.A1 cells; assay: Cytotoxicity to J774.A1 macrophages (Alamar Blue); details: concentrations up to 500 μM (compounds 7 and 13 up to 250 μM)
Method: Cells were incubated for 72 h at 37 °C in a 5% CO2 atmosphere, as previously described. They were then stimulated with LPS (500 ng/mL, Sigma Chemical Co., St. Louis, MO, USA) and IFN-γ (5 ng/mL, Sigma). Compounds were added to the medium at eight concentrations ranging from 1.9 to 500 μM, in triplicate, and incubated for 24 h. Subsequently, 20 μL per well of Alamar Blue (Invitrogen, Carlsbad, CA, USA) was added to the plates for 6 h. Compounds 7, 11, and 13 were evaluated only up to a maximum concentration of 250 μM due to the limited amount of purified material available for testing. Colorimetric readings were performed at 570 and 600 nm. Triton X-100 (5%) was used as the positive control.

[2] = tested on: IL-1β production by stimulated J774.A1 macrophages; assay: IL-1β production by LPS + IFN-γ stimulated J774.A1 macrophages (ELISA); type: cell-based, murine; details: compounds at 62.5 μM, Dexa 40 μM, 24 h, vs stimulated untreated cells, p < 0.05
Method: (§1) Cells were then stimulated with LPS (500 ng/mL) and IFN-γ (5 ng/mL) in the presence of either the test compounds at different concentrations (3.9–250 μM), the medium alone, or dexamethasone (40 μM, reference drug) and further incubated at 37 °C. Cell-free supernatants were collected 24 h after incubation for IL-1β, IL-6, and nitrite quantification. Cytokine concentrations in the supernatants of J774.A1 cultures were determined by enzyme-linked immunosorbent assay (ELISA) using the DuoSet kit (R&D Systems, Minneapolis, MN, USA), according to the manufacturer’s instructions. Results were expressed as picograms per milliliter (pg/mL) of IL-1β or IL-6. Quantification of nitrite as an indicator of nitric oxide production was performed using the Griess method. Three independent experiments were performed. −

[3] = tested on: nitric oxide production by stimulated J774.A1 macrophages; assay: Nitric oxide production by LPS + IFN-γ stimulated J774.A1 macrophages (nitrite, Griess method); type: cell-based, murine; details: Mus musculus
Method: as §1, with “For cytokine and nitric oxide evaluations, J774.A1 cells were seeded in 96-well tissue culture plates at 2 × 10^5 cells per well in DMEM supplemented with 10% FBS and 50 μg/mL gentamicin and incubated for 2 h at 37 °C in a 5% CO2 atmosphere, as previously described. Cells” for “Cells”

[4] = tested on: IL-6 production by stimulated J774.A1 macrophages; assay: IL-6 production by LPS + IFN-γ stimulated J774.A1 macrophages (ELISA); type: cell-based, murine; details: compounds at 62.5 μM, Dexa 40 μM, 24 h, vs stimulated untreated cells, p < 0.05
Method: as §1

[5] = J774.A1, 24 h, read-out: IC50, half maximal inhibitory concentration, NO production, J774.A1 macrophages stimulated with LPS (500 ng/mL) + IFN-γ (5 ng/mL), 24 h, nitrite by Griess
[6] = J774.A1, 24 h, read-out: efficacy: maximum effect (% of the maximum possible effect), inhibition of NO production, J774.A1 macrophages stimulated with LPS + IFN-γ, 24 h
[7] = J774.A1, read-out: IC50 (in Figure 8 panels), nitric oxide production, Figure 8, no unit in the boxes, μM only in axis labels, LPS + IFN-γ stimulated J774.A1

| IC50 ([3]; J774.A1, 24 h, J774.A1 macrophages stimulated with LPS (500 ng/mL) + IFN-γ (5 ng/mL), 24 h, nitrite by Griess, read-out: IC50, half maximal inhibitory concentration, NO production) | SMILES | cytotoxic effects in J774 macrophages (in words) [1] | production of IL-1β (in words) [2] | IC50 [3, 5] | Emax [3, 6] | production of IL-6 (in words) [4] | IC50 [3, 7] | Emax ([3]; J774.A1, 24 h, J774.A1 macrophages stimulated with LPS + IFN-γ, 24 h, read-out: efficacy: maximum effect (% of the maximum possible effect), inhibition of NO production) |
| --- | --- | --- | --- | --- | --- | --- | --- | --- |
|  | COC1CC(OC2CCC3(C)C(CCC4(O)C3CC(OC(=O)C=Cc3ccccc3)C3(C)C(O)(C(C)OC(=O)c5cccnc5)CCC43O)C2)OC(C)C1OC1CC(OC)C(OC2OC(C)C(O)C(OC)C2O)C(C)O1 [Compound 2, 12-O-cinnamoyl-20-O-nicotinoyl-(20R)-5,6-dihydrosarcostin-3-O-β-D-6-deoxy-3-O-methyl-allopyranosyl-(1 → 4)-β-D-oleandropyranosyl-(1 → 4)-β-D-cymaropyranoside] | did not induce cytotoxic effects | significant reduction; also recorded: comparable to those of Dexa | 32.1 µM | > 70% | comparable to those of Dexa |  |  |
|  | COC1CC(OC2CCC3(C)C(=CCC4(O)C3CC(OC(=O)C=Cc3ccccc3)C3(C)C(O)(C(C)OC(=O)c5cccnc5)CCC43O)C2)OC(C)C1OC1CC(OC)C(OC2OC(C)C(O)C(OC)C2O)C(C)O1 [Compound 1, 12-O-cinnamoyl-20-O-nicotinoyl-(20R)-sarcostin-3-O-β-D-6-deoxy-3-O-methyl-allopyranosyl-(1 → 4)-β-D-oleandropyranosyl-(1 → 4)-β-D-cymaropyranoside] | did not induce cytotoxic effects | significant reduction; also recorded: comparable to those of Dexa | 24.5 µM | > 70% | comparable to those of Dexa |  |  |
|  | COC1CC(OC2CCC3(C)C(CCC4(O)C3CC(OC(=O)C=Cc3ccccc3)C3(C)C(C(C)O)CCC43O)C2)OC(C)C1OC1CC(OC)C(OC2OC(C)C(OC3OC(CO)C(OC4OC(CO)C(O)C(O)C4O)C(O)C3O)C(OC)C2O)C(C)O1 [Compound 6, 12-O-cinnamoyl-(20S)-5,6,17-trihydrosarcostin-3-O-β-D-glucopyranosyl-(1 → 4)-β-D glucopyranosyl-(1 → 4)-β-D-6-deoxy-3-O-methyl-allopyranosyl-(1 → 4)-β-D oleandropyranosyl-(1 → 4)-β-D-cymaropyranoside] | did not induce cytotoxic effects | did not reduce |  | < 50% |  |  |  |
|  | COC1CC(OC2CCC3(C)C(=CCC4(O)C3CC(OC(=O)C=Cc3ccccc3)C3(C)C(C(C)O)CCC43O)C2)OC(C)C1OC1CC(OC)C(OC2OC(C)C(O)C(OC)C2O)C(C)O1 [Compound 11, 12-O-cinnamoyl-(20S)-17-hydrosarcostin-3-O-β-D-6-deoxy-3-O-methyl-allopyranosyl-(1 → 4)-β-D-oleandropyranosyl-(1 → 4)-β-D-cymaropyranoside] | most cytotoxic | significant reduction | 47.3 µM | 51.8% |  | 47.3 µM |  |
|  | COC1CC(OC2C(C)OC(OC3CCC4(C)C(CCC5(O)C4CC(OC(=O)C=Cc4ccccc4)C4(C)C(C(C)O)CCC54O)C3)CC2OC(C)=O)OC(C)C1OC1OC(C)C(O)C(OC)C1O [Compound 13, 12-O-cinnamoyl-(20S)-5,6,17-trihydrosarcostin-3-O-β-D-6-deoxy-3-O-methyl-allopyranosyl-(1 → 4)-β-D-oleandropyranosyl-(1 → 4)-β-D-3′-O-acetyl-cymaropyranoside] | did not exhibit cytotoxicity at the concentrations tested | significant reduction | 42.4 µM | 59.3% |  | 42.4 µM |  |
| 4.8 µM | C[C@@H]1C[C@H]2[C@@H]3CCC4=CC(=O)C=C[C@]4(C)[C@@]3(F)[C@@H](O)C[C@]2(C)[C@@]1(O)C(=O)CO [Dexa, dexamethasone, reference compound] |  |  |  |  |  |  | 51.6% |
|  | COC1CC(OC2C(C)OC(OC3CCC4(C)C(CCC5(O)C4CC(OC(C)=O)C4(C)C(C(C)OC(=O)c6ccccc6)CCC54O)C3)CC2OC(C)=O)OC(C)C1OC1OC(C)C(O)C(OC)C1O [Compound 17, 12-O-acetyl-20-O-benzoyl-(20R)-5,6,17-trihydrosarcostin-3-O-β-D-6-deoxy-3-O-methyl-allopyranosyl-(1 → 4)-β-D-oleandropyranosyl-(1 → 4)-β-D-3′-O-acetyl-cymaropyranoside] | only mild cytotoxicity at the highest concentrations | significant reduction | 46.3 µM | < 50% |  | 46.3 µM |  |
|  | COC1CC(OC2C(O)CC(OC3CCC4(C)C(CCC5(O)C4CC(OC(=O)C=Cc4ccccc4)C4(C)C(C(C)O)CCC54O)C3)OC2C)OC(C)C1OC1OC(C)C(O)C(OC)C1O [Compound 12, 12-O-cinnamoyl-(20S)-5,6,17-trihydrosarcostin-3-O-β-D-6-deoxy-3-O-methyl-allopyranosyl-(1 → 4)-β-D-oleandropyranosyl-(1 → 4)-β-D-digitoxopyranoside] |  | did not reduce | > 100 µM | 62% |  |  |  |
|  | COC1CC(OC2CCC3(C)C(CCC4(O)C3CC(OC(=O)C=Cc3ccccc3)C3(C)C(C(C)O)CCC43O)C2)OC(C)C1OC1CC(OC)C(OC2OC(C)C(O)C(OC)C2O)C(C)O1 [Compound 15, 12-O-cinnamoyl-(20S)-5,6,17-trihydrosarcostin-3-O-β-D-6-deoxy-3-O-methyl-allopyranosyl-(1 → 4)-β-D-oleandropyranosyl-(1 → 4)-β-D-cymaropyranoside] | most cytotoxic | significant reduction | 33.7 µM | 62.9% |  | 33.8 µM |  |
|  | COC1CC(OC2C(C)OC(OC3CCC4(C)C(CCC5(O)C4CC(OC(=O)C=Cc4ccccc4)C4(C)C(C(C)O)CCC54O)C3)CC2OC(C)=O)OC(C)C1OC1OC(C)C(OC2OC(CO)C(OC3OC(CO)C(O)C(O)C3O)C(O)C2O)C(OC)C1O [Compound 7, 12-O-cinnamoyl-(20S)-5,6,17-trihydrosarcostin-3-O-β-D-glucopyranosyl-(1 → 4)-β-D-glucopyranosyl-(1 → 4)-β-D-6-deoxy-3-O-methyl-allopyranosyl-(1 → 4)-β-D-oleandropyranosyl-(1 → 4)-β-D-3′-O-acetyl-cymaropyranoside] | did not exhibit cytotoxicity at the concentrations tested | did not reduce | > 100 µM | < 50% |  |  |  |
|  | COC1CC(OC2CCC3(C)C(CCC4(O)C3CC(OC(C)=O)C3(C)C(C(C)OC(=O)c5ccccc5)CCC43O)C2)OC(C)C1OC1CC(OC)C(OC2OC(C)C(O)C(OC)C2O)C(C)O1 [Compound 18, 12-O-acetyl-20-O-benzoyl-(20R)-5,6,17-trihydrosarcostin-3-O-β-D-6-deoxy-3-O-methyl-allopyranosyl-(1 → 4)-β-D-oleandropyranosyl-(1 → 4)-β-D-cymaropyranoside] |  | significant reduction | 66.2 µM | < 50% |  | 66.2 µM |  |

— PMC13629022 (ACS Omega, 2026)
